Data as given in patent US6037337A (priority 1994, dated 2000).

Key:
[1] = cited from earlier work
[2] = CNS toxicity monitoring in 7 female cancer patients; assay type: in vivo, human; details: racemate 3 g/m^2, 3 h infusion, mesna
Protocol: (§1) In a first investigation, the stereoselective urinary excretion of the parent drug, i.e. racemic ifosfamide, and its metabolites, was investigated. This followed a single dose of ifosfamide in 7 female cancer patients, while monitoring for CNS toxicity.
(§2) Patients received a 3 h infusion of ifosfamide (3 g/m^2) with mesna uroprotection, total urine output was collected for 27 h, and urine samples were analysed by enantioselective gas chromatography, as described by Granvil et al, J.Chromatogr. 622:21-31 (1993).
Since ifosfamide was the sole anti-cancer drug administered for the first chemotherapy cycle, toxicity data were not confounded by the effects of other anti-neoplastic agents.

[3] = system: non-tumor-bearing Fischer 344 rats; experiment: Lethality (non-tumor bearing), within 7-10 days after administration; assay type: in vivo, Fischer 344 rat
Protocol: Lethality (Non-Tumor Bearing)
The toxicity was assessed by lethality within 7-10 days after administration of (R)-, (S)-, or (R,S)-ifosfamide in non-tumor-bearing Fischer 344 rats.

WBC = experiment: Bone marrow suppression, WBC counts; assay type: in vivo, Fischer (F344) rat; details: for myelosuppression (WBC): 1 week after 125 mg/kg i.v.
Protocol: (§3) FIGS. 1A and 1B show peripheral blood counts obtained in tumor-bearing rats that received saline or ifosfamide treatment. […] There were 3-5 animals in each group. The following abbreviations etc. apply:
(§4) Determination of Myelotoxicity
(§5) For the studies of myelotoxicity, at least three animals/groups had blood obtained by cardiac puncture with a 23-gauge needle. The samples were heparinized and both WBC and platelet counts were determined using a Coulter Counter.
(§6) Measurements were made prior to and 1 week after i.v. injection of 125 mg/kg of (R,S)-, (R)-, or (S)-ifosfamide. […] In the presence of a tumor, the effects of a colony-stimulating factor are evidenced by higher WBC even prior to drug administration. Because the WBC progressively rises over time with exposure to the tumor, the intergroup variation in absolute WBC relates to differences in time from tumor inoculation to baseline WBC measurement and then drug administration.

platelets = experiment: Bone marrow suppression, platelet counts; assay type: in vivo, Fischer (F344) rat; details: for thrombocytopenia: 1 week after 125 mg/kg i.v.
Protocol: as §3, §4, §5, §6

[4] = system: tumor-bearing F344 rats (MatB rat mammary carcinoma); experiment: Lethality (tumor-bearing), toxic deaths; assay type: in vivo; details: for toxic deaths (of animals treated): tumor-bearing
Protocol: (§7) In order to help clarify the relative efficacies and toxicities of (S)-IFF and (R)-IFF, the effect of these enantiomers in F344 rats was investigated. Both non-tumor-bearing animals and those bearing a MatB rat mammary carcinoma were used in this study. The relative lethality, bone marrow suppression, weight loss, antitumor activity, and pharmacokinetics were determined for (R)-IFF, (S)-TFF and (R,S)-IFF.
Animal Model and Tumor Cells
(§8) MatB cells are maintained in vitro in α-minimum essential medium (GIBCO, Grand Island, N.Y.) supplemented with 1.3% sodium pyruvate, 2.6% glutamine, 1.3% non-essential amino acids, 10% fetal calf serum, and 100 units/ml gentamicin. Cells are maintained at 37° C. under 5% CO2. A suspension of 5×10^5 cells is injected s.c. into the flanks of female F344 rats weighing 160-200 g. Within 7-10 days, when there is a palpable nodule, the rats are lightly anesthetized with ether, and a single i.v. dose of ifosfamide is injected via the tail vein. The tumor size and animal weights are monitored every other day. On the basis of the conventional rat human dose conversion factor of 1:7 and idealised human body weights and surface areas of 70 kg and 1.5 m^2, the dose of 100 mg/kg in the rat represents approximately 600 mg/m^2 in humans, which is in the general range of clinical single doses, as described by De Kraker, supra. Statistical analysis was performed using an impaired Student's s test or Pearson's .chi.^2 analysis.
There were differences resulting in the presence of a tumor in these animals with regard to the effects of these treatments, and the data are therefore presented for each situation separately.

[5] = system: childhood rhabdomyosarcoma (HxRh28); details: immunoincompetent female CBA/CaJ mice; cited from earlier work
[6] = single dose; cited from earlier work
[7] = system: MatB subline selected for resistance to nitrogen mustards; experiment: Melphalan resistance of MatB subline in vivo; design: species or system rat
[8] = Weight loss, every-other-day measurements; assay type: in vivo, F344 rat; details: 125 mg/kg
Protocol: as §8
Weight loss was determined by every-other-day measurements of groups of at least three rats.

[9] = Pharmacokinetics in rat plasma (GC-MS), AUC
[10] = system: MatB rat mammary carcinoma; experiment: Antitumor efficacy in rats, enantiomer comparison; assay type: in vivo, Fischer (F344) rat; details: R-isomer; summary statement
Protocol: as §7
as §8, with “Statistical analysis was performed using an impaired Student's s test or Pearson's .chi.^2 analysis.” left out

[11] = Incubation with human liver microsomes, 2 and 3-dechlorometabolites by chiral assays; assay type: in vitro ADME; details: for 2 and 3-dechloro metabolites produced, R and S-ifosfamide incubated separately: separate enantiomers, compared with racemate results
[12] = CBA/CaJ mice; cited from earlier work
[13] = Stereoselective urinary excretion of ifosfamide and metabolites in 7 female cancer patients; assay type: in vivo, human; details: patient with severe neurotoxicity vs 6 others
Protocol: as §1, §2
In patients with excessive N-dechloroethylation, R-ifosfamide could have an improved efficacy/toxicity.

[14] = Analysis of urine of 11 patients after 3 hour infusion of racemic ifosfamide; assay type: in vivo, human
Protocol: This is based on the results of the analysis of the urine of 11 patients who received a 3 hour infusion of racemic ifosfamide. Patients had not received chemotherapy for a year and ifosfamide was the only drug administered during the pharmacokinetic study.

O=P1(NCCCl)OCCCN1CCCl (racemic) [(R,S)-IFF, ifosfamide, reference compound]
CNS side-effects ([1]; oral formulation): major dose-limiting side-effect
dose at which CNS side-effects appeared, oral versus iv ([1]; oral vs iv): much lower dose
chloroacetaldehyde levels after oral dosing ([1]; oral): higher levels of chloroacetaldehyde
metabolism after oral dosing ([1]; oral): much more metabolism
severe neurotoxic syndrome (patients) ([2]; 7 female patients): One patient had a severe neurotoxic syndrome
neurotoxic symptoms ([2]; one patient): somnolence, dizziness, lethargy, tremors, and hallucinations
lethality (rats dead of rats treated) ([3]; 150 mg/kg): 2 of 4
lethality (rats dead of rats treated) ([3]; 100 and 125 mg/kg): 1 of 5
myelosuppression (WBC) (WBC; tumor-bearing rats): significant myelosuppression
myelosuppression (WBC) (WBC; tumor-free rats): myelosuppression is observed
thrombocytopenia (platelets; non-tumor-bearing rats): significant thrombocytopenia
toxic deaths (of animals treated) ([4]; 100 mg/kg): 0 of 5
toxic deaths (of animals treated) ([4]; 125 mg/kg): 4 of 10
toxic deaths (of animals treated) ([4]; 150 mg/kg): 5 of 5
efficacy against HxRh28 xenograft, difference between stereoisomers [5]: no statistically significant differences
compound metabolised through the N-dechloroethylation pathway [6]: 15-50%
drug excreted unchanged [6]: 20-40%

N[C@@H](Cc1ccc(N(CCCl)CCCl)cc1)C(=O)O [melphalan]
resistance to melphalan [7]: at least 4 fold

O=[P@]1(NCCCl)OCCCN1CCCl [(R)-IFF, dexifosfamide]
lethality (rats dead of rats treated) ([3]; 150 mg/kg): 2 of 4
lethality (rats dead of rats treated) ([3]; 100 and 125 mg/kg, listed as (R)-ifosfamide): 1 of 5
myelotoxicity in the Fischer rat (WBC; summary statement): more myelotoxic
myelosuppression (WBC) (WBC; tumor-bearing rats): significant myelosuppression
myelosuppression (WBC) (WBC; tumor-free rats): myelosuppression is observed
weight loss [8]: appears greatest
weight loss, statistical significance [8]: significantly so only at one time point
clearance compared to (S)-IFF ([9]; rat): cleared more quickly
AUC, AUCRS versus AUCR ([9]; rat plasma, 100 mg/kg i.v.): no statistically significant difference
AUC, AUCR versus AUCS ([9]; rat plasma, 100 mg/kg i.v., P<0.01): statistically significant differences
metabolism via the activation pathway, compared to (S)-IFF ([9]; rat, inferred from AUC): metabolized to a greater degree
platelet suppression compared to (R,S)- or (S)-ifosfamide (platelets; non-tumor-bearing rats, 125 mg/kg i.v., P<0.05): greater platelet suppression
thrombocytopenia (platelets; non-tumor-bearing rats): significant thrombocytopenia
toxic deaths, compared to (R,S)-IFF ([4]; 125 mg/kg, chi-square): no difference
toxic deaths, (R)-IFF compared to (S)-IFF ([4]; 125 mg/kg, chi-square, P=0.017): significant difference
toxic deaths, (R)-IFF versus either (S)-IFF or (R,S)-IFF ([4]; 150 mg/kg, P=0.067): no significant difference
toxic deaths (of animals treated) ([4]; 100 mg/kg): 1 of 5
toxic deaths (of animals treated) ([4]; 125 mg/kg): 5 of 10
toxic deaths (of animals treated) ([4]; 150 mg/kg): 5 of 5
effectiveness in treating the tumors in the rats [10]: trend to the R-isomer being more effective
efficacy against HxRh28 xenograft, difference between stereoisomers [5]: no statistically significant differences
2 and 3-dechloro metabolites produced, R and S-ifosfamide incubated separately [11]: broadly the same

O=[P@@]1(NCCCl)OCCCN1CCCl [(S)-IFF, levoifosfamide]
lethality (rats dead of rats treated) ([3]; 150 mg/kg): 0 of 4
lethality (rats dead of rats treated) ([3]; 100 and 125 mg/kg, listed as (S)-ifosfamide): 0 of 5
myelosuppression (WBC) (WBC; tumor-bearing rats): no such effect after (S)-IFF where the WBC is higher
myelosuppression (WBC) (WBC; tumor-free rats): not statistically significant
metabolism via N-dechloroethylation, compared to (R)-IFF ([9]; stated with the rat AUC results): metabolized to a greater extent
plasma pharmacokinetics, differences [12]: No statistically significant differences
excretion of dechloroethylated metabolites from S-ifosfamide [13]: much higher excretion
thrombocytopenia (platelets; non-tumor-bearing rats): significant thrombocytopenia
platelet suppression compared to (R)- or (R,S)-ifosfamide (platelets; tumor-bearing rats, 125 mg/kg i.v.): significantly less
toxic deaths, compared to (R,S)-IFF ([4]; 125 mg/kg, chi-square): no difference
toxic deaths (of animals treated) ([4]; 100 mg/kg): 0 of 5
toxic deaths (of animals treated) ([4]; 125 mg/kg): 2 of 10
toxic deaths (of animals treated) ([4]; 150 mg/kg, listed as (S)-ifosfamide): 3 of 5
efficacy against HxRh28 xenograft, difference between stereoisomers [5]: no statistically significant differences
origin of side-chain metabolites in urine [14]: side-chain metabolites come from S-ifosfamide more than from R-ifosfamide
2 and 3-dechloro metabolites produced, compared to R-ifosfamide ([11]; racemic ifosfamide incubated): greater amounts
2 and 3-dechloro metabolites produced, R and S-ifosfamide incubated separately [11]: broadly the same
